Consider twelve compounds from patent US12371454B2, “Cyclic peptide compound having Kras inhibitory action” (priority 2019, dated 2025).

The structures appear in SMILES notation. Starred links: 1 amine or outer side, 2 acyl side, 3 side chain; linkers in the order of their positions; H or OH if unused. Positions of bridges follow the written chain, without caps; N, C: chain ends. Non-standard residues stand in square brackets, D forms with d. Residues, ends and D or L forms follow the SMILES beside them. *: point of attachment. X58 = O=C([C@H](CCc1ccc(OC(F)(F)F)c(F)c1)N[*:1])[*:2]; X60 = CC(C)Oc1cc(CC[C@H](N[*:1])C(=O)[*:2])cc(Cl)c1Cl; X57 = N#Cc1cc(CC[C@H](N[*:1])C(=O)[*:2])ccc1C(F)(F)F; X75 = O=C([C@H](CCc1ccc2c(c1)OC(F)(F)O2)N[*:1])[*:2]; X74 = O=C([C@H](CCc1cc(Cl)c(Cl)c(Cl)c1)N[*:1])[*:2]; X68 = O=C([C@H](CCc1ccc(OC(F)F)c(F)c1)N[*:1])[*:2]; X34 = O=C([C@H](CCc1ccc(C(F)(F)F)nc1)N[*:1])[*:2]; X16 = Cn1ccc2ccc(CC[C@H](N[*:1])C(=O)[*:2])cc21; X44 = O=C([C@H](CCc1ccc2ncccc2c1)N[*:1])[*:2]; X86 = O=C([C@H](CCc1ccc2occc2c1)N[*:1])[*:2]; X9 = O=C([C@H](CCc1ccc2cccnc2c1)N[*:1])[*:2]; NMeGly(cPent) = CN[C@H](C(=O)O)C1CCCC1; NMeCha = CN[C@@H](CC1CCCCC1)C(=O)O; NMeChg = CN[C@H](C(=O)O)C1CCCCC1; NMeD = CN[C@@H](CC(=O)O)C(=O)O; NMeL = CN[C@@H](CC(C)C)C(=O)O; NMeV = CN[C@H](C(=O)O)C(C)C; NMeA = CN[C@@H](C)C(=O)O; Piperidide = C1CCN(*)CC1; Ac5c = NC1(C(=O)O)CCCC1; Aze = O=C(O)[C@@H]1CCN1; Sar = CNCC(=O)O

The subject of the test is Human pancreatic cancer cell line AsPC-1. The test can be described thus: Measurement of AsPC-1 cell growth inhibition (AsPC-1 CGI). Conditions: 96 h. It counts as cell-based. Summed up: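 AsPC-1 cells in 15% FBS RPMI-1640 were exposed to test compound for 96 hours at 37° C, with CellTiter-Glo as endpoint.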
What is called IC50 is the concentration that gives 50% inhibition. A high value points to weaker potency in that assay. `CC[C@H](C)[C@@H]1NC(=O)[C@H](C)N(C)C(=O)C[C@@H](C(=O)N2CCCCC2)N(C)C(=O)[C@H](C2CCCCC2)N(C)C(=O)C2(CCCC2)NC(=O)[C@@H]2CCCN2C(=O)[C@H](CCc2cc(Cl)c(Cl)c(Cl)c2)NC(=O)CN(C)C(=O)[C@H](CC2CCCCC2)N(C)C(=O)CN(C)C(=O)CN(C)C1=O` [Compound 2059, (3S,9S,18S,21S,25S,28S,34S)-28-cyclohexyl-9-(cyclohexylmethyl)-7,10,13,16,21,22,26,29-octamethyl-18-[(1S)-1-methylpropyl]-25-(piperidine-1-carbonyl)-3-[2-(3,4,5-trichlorophenyl)ethyl]spiro[1,4,7,10,13,16,19,22,26,29,32-undecazabicyclo[32.3.0]heptatriacontane-31,1′-cyclopentane]-2,5,8,11,14,17,20,23,27,30,33-undecone] ([NMeA]I[Sar][Sar][NMeCha][Sar][X74]P[Ac5c][NMeChg][NMeD]-Piperidide; lactam N-11): the IC50 lay within 100 to 500 nM.

In turn, `CC[C@H](C)[C@@H]1NC(=O)[C@H](C)N(C)C(=O)C[C@@H](C(=O)N2CCCCC2)N(C)C(=O)[C@H](C2CCCCC2)N(C)C(=O)C2(CCCC2)NC(=O)[C@@H]2CCCN2C(=O)[C@H](CCc2cc(Cl)c(Cl)c(OC(C)C)c2)NC(=O)CN(C)C(=O)[C@H](CC2CCCCC2)N(C)C(=O)CN(C)C(=O)CN(C)C1=O` [Compound 2062] ([NMeA]I[Sar][Sar][NMeCha][Sar][X60]P[Ac5c][NMeChg][NMeD]-Piperidide; lactam N-11; C-terminus assumed) had an IC50 of over 500 nM.

Consider `CC[C@H](C)[C@@H]1NC(=O)[C@H](CC(C)C)N(C)C(=O)C[C@@H](C(=O)N2CCCCC2)N(C)C(=O)[C@H](C2CCCC2)N(C)C(=O)C2(CCCC2)NC(=O)[C@@H]2CCCN2C(=O)[C@H](CCc2ccc3occc3c2)NC(=O)CN(C)C(=O)[C@H](CC2CCCCC2)N(C)C(=O)[C@@H]2CCN2C(=O)[C@H](C)N(C)C1=O` [Compound 2063] ([NMeL]I[NMeA][Aze][NMeCha][Sar][X86]P[Ac5c][NMeGly(cPent)][NMeD]-Piperidide; lactam N-11), for which the IC50 lay within 50 to 100 nM.

For the compound `CC[C@H](C)[C@@H]1NC(=O)[C@H](CC(C)C)N(C)C(=O)C[C@@H](C(=O)N2CCCCC2)N(C)C(=O)[C@H](C2CCCC2)N(C)C(=O)C2(CCCC2)NC(=O)[C@@H]2CCCN2C(=O)[C@H](CCc2ccc3ccn(C)c3c2)NC(=O)CN(C)C(=O)[C@H](CC2CCCCC2)N(C)C(=O)[C@@H]2CCN2C(=O)[C@H](C)N(C)C1=O` [Compound 2065] ([NMeL]I[NMeA][Aze][NMeCha][Sar][X16]P[Ac5c][NMeGly(cPent)][NMeD]-Piperidide; lactam N-11), the IC50 lay within 100 to 500 nM.

`CC[C@H](C)[C@@H]1NC(=O)[C@H](CC(C)C)N(C)C(=O)C[C@@H](C(=O)N2CCCCC2)N(C)C(=O)[C@H](C2CCCC2)N(C)C(=O)C2(CCCC2)NC(=O)[C@@H]2CCCN2C(=O)[C@H](CCc2ccc(OC(F)(F)F)c(F)c2)NC(=O)CN(C)C(=O)[C@H](CC2CCCCC2)N(C)C(=O)[C@@H]2CCN2C(=O)[C@H](C)N(C)C1=O` [Compound 2067] ([NMeL]I[NMeA][Aze][NMeCha][Sar][X58]P[Ac5c][NMeGly(cPent)][NMeD]-Piperidide; lactam N-11) registered an IC50 of 20 to 50 nM.

Turning to `CC[C@H](C)[C@@H]1NC(=O)[C@H](CC(C)C)N(C)C(=O)C[C@@H](C(=O)N2CCCCC2)N(C)C(=O)[C@H](C2CCCC2)N(C)C(=O)C2(CCCC2)NC(=O)[C@@H]2CCCN2C(=O)[C@H](CCc2ccc3ncccc3c2)NC(=O)CN(C)C(=O)[C@H](CC2CCCCC2)N(C)C(=O)[C@@H]2CCN2C(=O)[C@H](C)N(C)C1=O` [Compound 2070] ([NMeL]I[NMeA][Aze][NMeCha][Sar][X44]P[Ac5c][NMeGly(cPent)][NMeD]-Piperidide; lactam N-11), the IC50 was over 500 nM.

Compound `CC[C@H](C)[C@@H]1NC(=O)[C@H](CC(C)C)N(C)C(=O)C[C@@H](C(=O)N2CCCCC2)N(C)C(=O)[C@H](C2CCCC2)N(C)C(=O)C2(CCCC2)NC(=O)[C@@H]2CCCN2C(=O)[C@H](CCc2ccc(C(F)(F)F)c(C#N)c2)NC(=O)CN(C)C(=O)[C@H](CC2CCCCC2)N(C)C(=O)[C@@H]2CCN2C(=O)[C@H](C)N(C)C1=O` [Compound 2072] ([NMeL]I[NMeA][Aze][NMeCha][Sar][X57]P[Ac5c][NMeGly(cPent)][NMeD]-Piperidide; lactam N-11) came in with an IC50 of 20 to 50 nM.

Regarding `CC[C@H](C)[C@@H]1NC(=O)[C@H](CC(C)C)N(C)C(=O)C[C@@H](C(=O)N2CCCCC2)N(C)C(=O)[C@H](C2CCCC2)N(C)C(=O)C2(CCCC2)NC(=O)[C@@H]2CCCN2C(=O)[C@H](CCc2ccc3c(c2)OC(F)(F)O3)NC(=O)CN(C)C(=O)[C@H](CC2CCCCC2)N(C)C(=O)[C@@H]2CCN2C(=O)[C@H](C)N(C)C1=O` [Compound 2074] ([NMeL]I[NMeA][Aze][NMeCha][Sar][X75]P[Ac5c][NMeGly(cPent)][NMeD]-Piperidide; lactam N-11), the IC50 is 50 to 100 nM.

With `CC[C@H](C)[C@@H]1NC(=O)[C@H](CC(C)C)N(C)C(=O)C[C@@H](C(=O)N2CCCCC2)N(C)C(=O)[C@H](C2CCCC2)N(C)C(=O)C2(CCCC2)NC(=O)[C@@H]2CCCN2C(=O)[C@H](CCc2ccc(OC(F)F)c(F)c2)NC(=O)CN(C)C(=O)[C@H](CC2CCCCC2)N(C)C(=O)[C@@H]2CCN2C(=O)[C@H](C)N(C)C1=O` [Compound 2076] ([NMeL]I[NMeA][Aze][NMeCha][Sar][X68]P[Ac5c][NMeGly(cPent)][NMeD]-Piperidide; lactam N-11), the IC50 lay in the range of 50 to 100 nM.

On to `CC[C@H](C)[C@@H]1NC(=O)[C@H](CC(C)C)N(C)C(=O)C[C@@H](C(=O)N2CCCCC2)N(C)C(=O)[C@H](C2CCCC2)N(C)C(=O)C2(CCCC2)NC(=O)[C@@H]2CCCN2C(=O)[C@H](CCc2ccc3cccnc3c2)NC(=O)CN(C)C(=O)[C@H](CC2CCCCC2)N(C)C(=O)[C@@H]2CCN2C(=O)[C@H](C)N(C)C1=O` [Compound 2077] ([NMeL]I[NMeA][Aze][NMeCha][Sar][X9]P[Ac5c][NMeGly(cPent)][NMeD]-Piperidide; lactam N-11), for which the IC50 was in the range of 100 to 500 nM.

Turning to `CC[C@H](C)[C@@H]1NC(=O)[C@H](CC(C)C)N(C)C(=O)C[C@@H](C(=O)N2CCCCC2)N(C)C(=O)[C@H](C2CCCC2)N(C)C(=O)C2(CCCC2)NC(=O)[C@@H]2CCCN2C(=O)[C@H](CCc2ccc(C(F)(F)F)nc2)NC(=O)CN(C)C(=O)[C@H](CC2CCCCC2)N(C)C(=O)[C@@H]2CCN2C(=O)[C@H](C)N(C)C1=O` [Compound 2078] ([NMeL]I[NMeA][Aze][NMeCha][Sar][X34]P[Ac5c][NMeGly(cPent)][NMeD]-Piperidide; lactam N-11), the 50% inhibitory concentration (IC50) was 100 to 500 nM.

As for `CC[C@H](C)[C@@H]1NC(=O)[C@H](C)N(C)C(=O)C[C@@H](C(=O)N2CCCCC2)N(C)C(=O)[C@H](C(C)C)N(C)C(=O)C2(CCCC2)NC(=O)[C@@H]2CCCN2C(=O)[C@H](CCc2cc(Cl)c(Cl)c(OC(C)C)c2)NC(=O)CN(C)C(=O)[C@H](CC2CCCCC2)N(C)C(=O)CN(C)C(=O)CN(C)C1=O` [Compound 2079] ([NMeA]I[Sar][Sar][NMeCha][Sar][X60]P[Ac5c][NMeV][NMeD]-Piperidide; lactam N-11; C-terminus assumed), the half-inhibitory concentration (IC50) was over 500 nM.
